Results taken from US10039759B2, “Quinolines as FGFR kinase modulators” (priority 2011, dated 2018).

Experiments:
[1] = target: T1, Ba/F3-FGFR3-transfected cells (Homo sapiens, UniProt P22607, cells depend on it, form not given); assay: Ba/F3-FGFR3 (minus IL3 or plus IL3) cellular proliferation assay, Alamar Blue; type: cell-based; details: minus IL3; 24 hours, Alamar Blue
T1 construct: BAF3-FGFR3 (MIN IL3 Alamar Blue- pIC50); other: minus IL3; 24 hours, Alamar Blue
Summary of the method: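 Ba/F3-FGFR3 cells (20000 per well) in phenol red-free RPMI-1640 with 10% FBS were exposed to compound (10 μM to 0.1 nM) for 24 h at 37° C. Alamar Blue was then added for 4 h and fluorescence read (ex 540, em 590 nm) to give IC50/pIC50; the counterscreen was run with 10 ng/ml murine IL3.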

[2] = target: FGFR2 (h) (Homo sapiens, UniProt P21802); assay: FGFR2 (enzymatic assay), TR-FRET; type: biochemical; details: 0.4 μM ATP, 60 min; pIC50 = -log IC50 (M); average if tested multiple times; read-out: FGFR 2 pIC50 (converted)
[3] = target: FGFR4 (h) (Homo sapiens, UniProt P22455); assay: FGFR4 (enzymatic assay), TR-FRET; type: biochemical; details: FGFR 4 pIC50, 5 μM ATP, 60 min; pIC50 = -log IC50 (M); average if tested multiple times
[4] = target: T2, Ba/F3-Flt3-transfected cells (Homo sapiens, UniProt P36888, cells depend on it, form not given); assay: Ba/F3-Flt3 (minus IL3 or plus IL3) cellular proliferation assay, Alamar Blue; type: cell-based; details: minus IL3, 24 hours
T2 construct: BAF3-FLT3 (MIN IL3 Alamar Blue pIC50); other: minus IL3; 24 hours, Alamar Blue
T2 sequence (P36888 1-993): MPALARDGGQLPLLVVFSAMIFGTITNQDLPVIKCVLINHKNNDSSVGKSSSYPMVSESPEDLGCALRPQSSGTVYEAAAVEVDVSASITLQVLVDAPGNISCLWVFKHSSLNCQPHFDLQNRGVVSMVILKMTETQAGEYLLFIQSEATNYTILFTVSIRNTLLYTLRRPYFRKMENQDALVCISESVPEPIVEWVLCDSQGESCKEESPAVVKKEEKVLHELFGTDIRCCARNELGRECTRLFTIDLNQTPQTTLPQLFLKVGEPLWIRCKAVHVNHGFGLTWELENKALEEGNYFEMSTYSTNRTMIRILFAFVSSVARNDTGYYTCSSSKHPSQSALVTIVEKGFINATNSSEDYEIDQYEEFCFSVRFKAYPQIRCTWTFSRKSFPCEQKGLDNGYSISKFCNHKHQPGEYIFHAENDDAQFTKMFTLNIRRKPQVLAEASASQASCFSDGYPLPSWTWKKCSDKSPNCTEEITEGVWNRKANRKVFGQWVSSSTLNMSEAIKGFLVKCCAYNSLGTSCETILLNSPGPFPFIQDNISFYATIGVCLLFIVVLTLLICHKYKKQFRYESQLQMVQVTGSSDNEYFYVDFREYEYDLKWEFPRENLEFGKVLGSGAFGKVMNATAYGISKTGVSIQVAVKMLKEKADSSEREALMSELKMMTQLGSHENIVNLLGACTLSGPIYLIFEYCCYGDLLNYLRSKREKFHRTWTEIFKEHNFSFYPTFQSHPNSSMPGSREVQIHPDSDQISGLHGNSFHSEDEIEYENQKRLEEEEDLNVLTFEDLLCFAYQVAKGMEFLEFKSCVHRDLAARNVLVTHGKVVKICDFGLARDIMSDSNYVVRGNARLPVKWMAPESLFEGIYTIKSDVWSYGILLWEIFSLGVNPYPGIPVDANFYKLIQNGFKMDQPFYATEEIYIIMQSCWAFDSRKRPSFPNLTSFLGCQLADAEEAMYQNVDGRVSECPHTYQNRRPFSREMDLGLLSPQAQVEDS
Protocol: Ba/F3-Flt3 (Minus IL3 or Plus IL3) (Cellular Proliferation Assay)
In a 384 well plate, 100 nl of compound dilution in DMSO was sprayed before adding 50 μl cell culture medium (phenol red free RPMI-1640, 10% FBS, 2 mM L-Glutamine and 50 μg/ml Gentamycin) containing 20000 cells per well of Ba/F3-Flt3-transfected cells. Cells were put in an incubator at 37° C. and 5% CO2. After 24 hours, 10 μl of Alamar Blue solution (0.5 mM K3Fe(CN)6, 0.5 mM K4Fe(CN)6, 0.15 mM Resazurin and 100 mM Phosphate Buffer) was added to the wells, incubated for 4 hours at 37° C. and 5% CO2 before RFU's (Relative Fluorescence Units) (ex. 540 nm., em. 590 nm.) were measured in a fluorescence plate reader.
In this assay, the inhibitory effect of different compound concentrations (range 10 μM to 0.1 nM) was determined and used to calculate an IC50 (M) and pIC50 (−log IC50) value. As a counterscreen the same experiment was performed in the presence of 10 ng/ml murine IL3.

[5] = target: T3, Ba/F3-FGFR1-transfected cells (Homo sapiens, UniProt P11362, cells depend on it, form not given); assay: Ba/F3-FGFR1 (minus IL3 or plus IL3) cellular proliferation assay, Alamar Blue; type: cell-based; details: minus IL3, 24 hours
T3 construct: other: minus IL3; 24 hours, Alamar Blue
Summary of the method: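 Ba/F3-FGFR1 cells (20000/well) were treated with compound (10 μM–0.1 nM) for 24 h at 37 °C. Alamar Blue was then added for 4 h, with fluorescence read at ex 540/em 590 nm to give IC50/pIC50. A counterscreen was run with 10 ng/ml murine IL3.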

T3 sequence (P11362 whole entry, change not shown): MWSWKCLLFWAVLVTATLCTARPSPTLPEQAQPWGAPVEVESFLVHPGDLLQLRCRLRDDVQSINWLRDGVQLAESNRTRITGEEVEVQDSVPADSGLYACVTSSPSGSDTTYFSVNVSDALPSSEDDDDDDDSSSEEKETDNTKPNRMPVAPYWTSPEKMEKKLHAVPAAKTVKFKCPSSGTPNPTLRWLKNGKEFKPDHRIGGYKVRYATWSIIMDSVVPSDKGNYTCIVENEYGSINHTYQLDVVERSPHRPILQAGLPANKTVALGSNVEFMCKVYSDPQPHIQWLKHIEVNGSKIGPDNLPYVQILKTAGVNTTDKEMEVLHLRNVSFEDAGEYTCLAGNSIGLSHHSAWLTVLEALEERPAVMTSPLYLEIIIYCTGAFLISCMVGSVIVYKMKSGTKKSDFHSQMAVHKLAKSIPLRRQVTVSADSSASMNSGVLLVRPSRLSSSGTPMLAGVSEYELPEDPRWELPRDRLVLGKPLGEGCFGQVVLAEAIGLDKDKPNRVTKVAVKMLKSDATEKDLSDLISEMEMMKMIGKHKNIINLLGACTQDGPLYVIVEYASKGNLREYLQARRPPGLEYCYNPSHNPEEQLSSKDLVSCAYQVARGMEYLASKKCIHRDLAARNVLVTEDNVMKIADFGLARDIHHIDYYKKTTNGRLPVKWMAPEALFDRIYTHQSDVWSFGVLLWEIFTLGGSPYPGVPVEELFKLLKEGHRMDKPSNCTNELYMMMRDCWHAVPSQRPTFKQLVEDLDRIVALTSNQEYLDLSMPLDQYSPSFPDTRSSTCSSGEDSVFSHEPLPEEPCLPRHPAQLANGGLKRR
Chain of FGFR4 (h) (P22455 22-802): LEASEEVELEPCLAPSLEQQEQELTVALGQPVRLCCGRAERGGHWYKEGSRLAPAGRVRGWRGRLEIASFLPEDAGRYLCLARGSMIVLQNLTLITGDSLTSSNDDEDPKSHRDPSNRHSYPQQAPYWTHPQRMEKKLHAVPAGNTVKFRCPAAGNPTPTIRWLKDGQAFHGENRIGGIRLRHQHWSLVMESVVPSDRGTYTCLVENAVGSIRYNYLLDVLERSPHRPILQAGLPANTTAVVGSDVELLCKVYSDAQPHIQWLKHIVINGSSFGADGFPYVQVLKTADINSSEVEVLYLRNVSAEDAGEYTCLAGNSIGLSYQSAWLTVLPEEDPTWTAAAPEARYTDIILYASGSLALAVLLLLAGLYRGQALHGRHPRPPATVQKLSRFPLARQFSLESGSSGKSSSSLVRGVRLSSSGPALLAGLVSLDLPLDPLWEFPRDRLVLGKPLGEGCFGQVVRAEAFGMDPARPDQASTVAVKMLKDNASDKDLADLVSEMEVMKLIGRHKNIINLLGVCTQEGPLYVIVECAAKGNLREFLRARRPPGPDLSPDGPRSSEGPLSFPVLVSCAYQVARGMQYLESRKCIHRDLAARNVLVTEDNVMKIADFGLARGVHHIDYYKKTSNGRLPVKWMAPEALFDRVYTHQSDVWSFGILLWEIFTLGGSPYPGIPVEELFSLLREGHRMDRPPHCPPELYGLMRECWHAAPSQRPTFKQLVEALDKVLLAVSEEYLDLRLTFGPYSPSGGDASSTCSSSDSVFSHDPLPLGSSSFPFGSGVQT
Chain of FGFR2 (h) (P21802 22-821): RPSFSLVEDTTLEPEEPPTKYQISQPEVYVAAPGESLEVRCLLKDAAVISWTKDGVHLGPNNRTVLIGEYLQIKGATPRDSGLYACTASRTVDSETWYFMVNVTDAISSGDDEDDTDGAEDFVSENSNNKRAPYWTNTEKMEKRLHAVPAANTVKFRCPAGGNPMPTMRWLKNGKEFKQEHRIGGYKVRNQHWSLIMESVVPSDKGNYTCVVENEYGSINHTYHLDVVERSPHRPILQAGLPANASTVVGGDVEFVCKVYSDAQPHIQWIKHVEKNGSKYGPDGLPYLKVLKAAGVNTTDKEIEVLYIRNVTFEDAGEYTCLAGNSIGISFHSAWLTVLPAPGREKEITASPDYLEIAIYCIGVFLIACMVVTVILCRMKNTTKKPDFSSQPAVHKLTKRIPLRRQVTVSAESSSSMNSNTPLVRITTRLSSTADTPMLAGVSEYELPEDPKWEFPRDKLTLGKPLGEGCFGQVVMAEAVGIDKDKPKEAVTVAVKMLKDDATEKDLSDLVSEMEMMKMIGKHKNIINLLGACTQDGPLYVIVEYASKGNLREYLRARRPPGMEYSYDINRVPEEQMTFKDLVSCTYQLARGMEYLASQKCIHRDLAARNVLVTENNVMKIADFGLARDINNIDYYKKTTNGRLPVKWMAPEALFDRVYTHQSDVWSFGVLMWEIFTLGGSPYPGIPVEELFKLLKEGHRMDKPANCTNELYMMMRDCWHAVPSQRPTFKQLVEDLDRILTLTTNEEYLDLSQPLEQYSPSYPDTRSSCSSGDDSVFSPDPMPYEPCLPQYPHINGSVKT
T1 sequence (P22607 whole entry, change not shown): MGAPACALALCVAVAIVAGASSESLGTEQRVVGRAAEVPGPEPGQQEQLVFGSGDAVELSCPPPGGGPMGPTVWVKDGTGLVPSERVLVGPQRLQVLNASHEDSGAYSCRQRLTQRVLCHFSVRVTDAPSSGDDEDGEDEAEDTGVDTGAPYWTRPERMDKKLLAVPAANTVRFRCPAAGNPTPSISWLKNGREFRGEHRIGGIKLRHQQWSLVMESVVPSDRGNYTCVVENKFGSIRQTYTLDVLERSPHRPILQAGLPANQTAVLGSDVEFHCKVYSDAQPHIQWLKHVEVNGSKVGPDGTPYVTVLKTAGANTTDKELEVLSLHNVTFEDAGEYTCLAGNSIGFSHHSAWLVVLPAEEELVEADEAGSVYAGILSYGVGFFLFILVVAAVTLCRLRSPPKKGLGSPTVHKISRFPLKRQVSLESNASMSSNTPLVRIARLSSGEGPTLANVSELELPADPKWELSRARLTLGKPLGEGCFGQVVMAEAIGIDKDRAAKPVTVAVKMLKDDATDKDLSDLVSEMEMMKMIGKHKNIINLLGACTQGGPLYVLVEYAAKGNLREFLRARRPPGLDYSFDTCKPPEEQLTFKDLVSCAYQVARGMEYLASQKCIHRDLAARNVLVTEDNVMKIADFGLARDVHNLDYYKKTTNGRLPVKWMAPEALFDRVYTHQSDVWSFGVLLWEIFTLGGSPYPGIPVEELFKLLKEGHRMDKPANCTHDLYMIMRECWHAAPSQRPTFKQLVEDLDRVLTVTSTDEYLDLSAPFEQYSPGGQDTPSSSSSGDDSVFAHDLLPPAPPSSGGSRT

SMILES	BAF3-FGFR3 (MIN IL3 Alamar Blue- pIC50) [1]	IC50 [2]	IC50 [3]	BAF3-FLT3 (MIN IL3 Alamar Blue pIC50) [4]	BAF3-FGFR1 (MIN IL3 pIC50) [5]
COc1cccnc1C#CCN(c1ccc2ncc(-c3cnn(C)c3)cc2c1)c1c(F)c(OC)cc(OC)c1F [Compound 27]	8.22	5.62e-09 M	3.13e-09 M	<5	8.715
COc1cc(OC)c(F)c(N(CCNC(C)C)c2ccc3ncc(-c4cnn(C)c4)cc3c2)c1 [Compound 2]	7.86	3.24e-09 M	3.98e-09 M	5.34	8.3
COc1cc(OC)cc(N(CC2CCN(c3nccc(OC)n3)C2)c2ccc3ncc(-c4cnn(C)c4)cc3c2)c1 (stereo not shown) [Compound 7]	<5	> 1e-06 M	> 1e-06 M	<5	<5
COc1cc(OC)c(F)c(N(CC#Cc2ncccc2OC)c2ccc3ncc(-c4cnn(C)c4)cc3c2)c1 [Compound 26]	8.17	1.05e-08 M	1.26e-08 M	5.16	7.95
COc1cc(OC)cc(C(O)c2ccc3ncc(-c4cnn(C)c4)cc3c2)c1 (stereo not shown) [Compound 12]	~5.075	4.17e-07 M	> 9.33e-07 M	<5.47	<5.03
COc1cc(OC)cc(N(Cc2ncc[nH]2)c2ccc3ncc(-c4cccnc4)cc3c2)c1 [Compound 59]	6.50	3.02e-09 M	7.41e-09 M	<5	6.36
CNCCN(c1ccc2ncc(-c3cnn(C)c3)cc2c1)c1c(F)c(OC)cc(OC)c1F [Compound 43]	~8	2.45e-09 M	2.63e-09 M	5.24	8.68
COc1cc(OC)cc(N(CCCN2CCCC2=O)c2ccc3ncc(-c4cnn(C)c4)cc3c2)c1 [Compound 10]	6.2	1.29e-08 M	8.32e-08 M	<5	6.03
COc1cc(OC)cc(N(Cc2nccn2S(=O)(=O)N(C)C)c2ccc3ncc(-c4ccncc4)cc3c2)c1 [Compound 58]	5.57	1.29e-08 M	1.86e-07 M	<5	~5.86

Now from value to compound:

BAF3-FGFR3 (MIN IL3 Alamar Blue- pIC50) [1]	IC50 [2]	IC50 [3]	BAF3-FLT3 (MIN IL3 Alamar Blue pIC50) [4]	BAF3-FGFR1 (MIN IL3 pIC50) [5]	SMILES
6.17	1.35e-08 M	3.09e-08 M	5.35	6.26	COc1cc(OC)cc(N(CCCO)c2ccc3ncc(-c4cnn(C)c4)cc3c2)c1 [Compound 4]
6.14	2e-08 M	1.17e-07 M	<5.47	6.27	COc1cc(OC)cc(N(Cc2ncccn2)c2ccc3ncc(-c4cnn(C)c4)cc3c2)c1 [Compound 8]
6.33	1.48e-08 M	3.8e-08 M	5.52	6.31	COc1cc(OC)cc(N(CCO)c2ccc3ncc(-c4cnn(C)c4)cc3c2)c1 [Compound 3]
7.22	2.51e-09 M	4.79e-09 M	<5	6.88	COc1cc(OC)cc(N(Cc2ncc[nH]2)c2ccc3ncc(-c4cnn(C)c4)cc3c2)c1 [Compound 18]
5.67	3.16e-08 M	9.12e-08 M	5.06	5.79	COc1cc(OC)cc(N(CCCNCC(F)(F)F)c2ccc3ncc(-c4cnn(C)c4)cc3c2)c1 [Compound 5]
5.22	1.95e-08 M	2.51e-07 M	<5	5.37	COc1cc(OC)cc(N(Cc2nccn2S(=O)(=O)N(C)C)c2ccc3ncc(-c4cccnc4)cc3c2)c1 [Compound 60]
7.63	1.2e-07 M	2.75e-07 M	<5	7.35	COc1cc(OC)cc(N(CC#Cc2ncccc2OC)c2ccc3ncc(-c4cnn(C)c4)cc3c2)c1 [Compound 17]
~6.95	5.25e-09 M	7.41e-09 M	<5	7.2	COc1cc(OC)cc(N(CCNC(C)C)c2ccc3ncc(-c4cnn(CCS(C)(=O)=O)c4)cc3c2)c1 [Compound 14]
